In this test the target is mouse TRPA1 (mTRPA1), Transient receptor potential ankyrin 1 cation channel (Mus musculus, UniProt Q8BLA8). Kind of test: Fura-2 ratiometric Ca2+ imaging, concentration-response in CHO-K1 cells stably transfected with mTRPA1. In kind it is cell-based.

As usually defined, the EC50 is the concentration at which the effect is half-maximal. A high value points to a less potent agent.

Chain of mouse TRPA1 (mTRPA1), Transient receptor potential ankyrin 1 cation channel (Q8BLA8 whole entry): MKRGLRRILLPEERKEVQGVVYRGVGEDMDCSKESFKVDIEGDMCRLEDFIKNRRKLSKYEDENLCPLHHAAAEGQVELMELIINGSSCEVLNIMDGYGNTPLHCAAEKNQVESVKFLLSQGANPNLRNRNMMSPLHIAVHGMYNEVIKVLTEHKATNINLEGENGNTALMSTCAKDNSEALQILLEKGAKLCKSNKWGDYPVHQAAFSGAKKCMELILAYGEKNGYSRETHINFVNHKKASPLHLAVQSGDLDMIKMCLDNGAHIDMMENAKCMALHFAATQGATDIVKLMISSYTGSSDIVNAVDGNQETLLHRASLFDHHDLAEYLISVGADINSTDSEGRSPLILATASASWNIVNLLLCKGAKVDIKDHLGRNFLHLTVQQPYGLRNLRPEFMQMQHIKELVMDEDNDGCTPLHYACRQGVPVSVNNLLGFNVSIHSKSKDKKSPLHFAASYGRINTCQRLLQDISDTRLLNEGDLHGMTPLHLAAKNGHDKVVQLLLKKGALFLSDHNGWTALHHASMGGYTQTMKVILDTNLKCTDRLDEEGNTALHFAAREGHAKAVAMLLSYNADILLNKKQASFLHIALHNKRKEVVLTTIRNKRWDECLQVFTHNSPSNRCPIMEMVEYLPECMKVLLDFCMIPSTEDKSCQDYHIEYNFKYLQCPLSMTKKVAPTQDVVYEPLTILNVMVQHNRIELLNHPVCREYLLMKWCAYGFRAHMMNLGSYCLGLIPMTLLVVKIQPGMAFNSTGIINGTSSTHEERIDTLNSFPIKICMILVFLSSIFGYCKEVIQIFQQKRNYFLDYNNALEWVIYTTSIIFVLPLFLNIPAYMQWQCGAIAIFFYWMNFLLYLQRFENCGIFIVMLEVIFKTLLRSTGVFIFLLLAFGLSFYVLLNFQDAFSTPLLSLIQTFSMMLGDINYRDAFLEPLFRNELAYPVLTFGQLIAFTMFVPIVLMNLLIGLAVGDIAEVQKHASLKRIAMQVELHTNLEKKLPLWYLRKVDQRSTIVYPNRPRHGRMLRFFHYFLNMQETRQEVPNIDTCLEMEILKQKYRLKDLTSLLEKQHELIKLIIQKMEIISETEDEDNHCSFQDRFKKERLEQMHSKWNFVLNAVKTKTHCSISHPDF

`C=CCN=C=S` [AITC, allyl isothiocyanate]: the concentration for a half-maximal effect (EC50) is 4.6 ± 1.1 µM.

The values are drawn from article PMC7312353, “Lipid Raft Destabilization Impairs Mouse TRPA1 Responses to Cold and Bacterial Lipopolysaccharides” (International Journal of Molecular Sciences, 2020).
